According to US20250367171A1, “THERAPEUTIC OR PROPHYLACTIC AGENT FOR PERIPHERAL NEUROPATHIES” (Toray Industries, Inc., priority 2017, published 2025):

Legend:
Type in all cases: in vivo
[1] = test system: rat streptozotocin-induced diabetes model; assay: Nerve conduction velocity in rat streptozotocin-induced diabetes model; conditions: 10 mg/kg oral twice a day, days 14 to 28 after induction, vs vehicle group
Method: Streptozotocin (50 mg/kg, Sigma-Aldrich) was administered intravenously to SD rats (6 weeks old, male; CHARLES RIVER LABORATORIES JAPAN, INC.) via the tail vein, thereby preparing the streptozotocin-induced diabetes model. Streptozotocin was dissolved in a citrate buffer to prepare a 25 mg/mL solution, and then administered. A no pathological condition-induced animal was prepared by administering no streptozotocin solution. The day of initial administration was designated as day 1 after induction of pathological conditions.
On days 14 to 28 after induction of pathological conditions, a solution containing compound 1 (3 or 10 mg/kg) or a solvent thereof (water for injection) was orally administered to rats twice a day. […]
Nerve conduction velocity was measured within 3 days from the next day of the final administration. […] A-B stimulation and B-C stimulation were designated as distal stimulation and proximal stimulation, respectively, and then the transmission time of stimulation was analyzed on the basis of each lead-out waveform obtained from the electrode at the footpad. Nerve conduction velocity was calculated on the basis of a difference in transmission time between the distal stimulation and the proximal stimulation and the distance between the electrodes.

[2] = test system: rat oxaliplatin-induced peripheral neuropathy model; assay: Cold allodynia (cold plate test) in rat oxaliplatin-induced peripheral neuropathy model; conditions: 10 mg/kg oral twice a day, day 12 after induction, vs vehicle group
Method: Oxaliplatin (4 mg/kg, Elplat I.V. infusion solution […]; Yakult) was administered to SD rats (7 weeks old, male; CHARLES RIVER LABORATORIES JAPAN, INC.) in a cycle of 1 week (intraperitoneally administered twice, two consecutive days per week) for 2 or 3 weeks, thereby preparing an oxaliplatin-induced peripheral neuropathy model. As a control (pseudo-induction), a 5% glucose solution (Otsuka Pharmaceutical Factory, Inc.) was administered. The initial day of administration was designated as day 0 after induction of pathological conditions.
A solution containing compound 1 (3 or 10 mg/kg) or a solvent thereof (water for injection; Otsuka Pharmaceutical Factory, Inc.) was orally administered everyday (twice a day) (2nd administration was performed 8 hours after the 1st administration) to rats from day 0 after induction of pathological conditions for 18 days. […]
The beneficial effects on cold allodynia were evaluated before induction of pathological conditions and on day 12 after induction of pathological conditions (before the 1st administration of compound 1). Beneficial effects on cool allodynia were evaluated by cold plate test. […] An animal was placed on a plate kept at a predetermined temperature (8° C.), and then the withdrawal latency required until pain-related behaviors (hind paw lifting, hind paw shaking, hind paw licking, standing, or jumping) were confirmed was measured. […]

[3] = test system: rat bortezomib-induced peripheral neuropathy model; assay: Mechanical allodynia (von Frey test) in rat bortezomib-induced peripheral neuropathy model; conditions: 20 mg/kg oral single dose, day 15, 3 hours after administration, vs vehicle group
Method: Bortezomib (0.2 mg/kg, AdooQ BioScience) was intraperitoneally administered 4 times in total to SD rats (6 weeks old, male; CHARLES RIVER LABORATORIES JAPAN, INC.) on days 1, 4, 8 and 11 after induction of pathological conditions, thereby preparing a bortezomib-induced peripheral neuropathy model. Here, the initial day of administration was designated as the 1st day (Day1) after induction of pathological conditions. Bortezomib was dissolved in dimethyl sulfoxide, and then Tween80 was added. Subsequently, water for injection was added to prepare a 0.2 mg/mL solution. The final concentration of dimethyl sulfoxide and that of Tween80 were each 5%.
On day 15 after induction of pathological conditions, a solution containing compound 1 (20 mg/kg) or a solvent thereof (water for injection) was orally administered to rats. Groups were composed of 2 groups: a solvent administration group (vehicle group) and a compound 1 (20 mg/kg) administration group.
Beneficial effects on mechanical allodynia were evaluated in a manner similar to Example 5, and this evaluation was performed before and on day 15 after induction of pathological conditions (3 hours after administration of compound 1).

CN(C)C1CCN(C(=O)C[C@H](O)c2nccn2C)CC1 [Compound 1, (S)-1-(4-(dimethylamino)piperidin-1-yl)-3-hydroxy-3-(1-methyl-1H-imidazol-2-yl)propan-1-one]
nerve conduction velocity [1]: Significant increases in nerve conduction velocity | withdrawal latency in cold plate test (cold allodynia) [2]: significantly prolonged withdrawal latency | 50% response threshold in von Frey test (mechanical allodynia) [3]: significant increase in 50% response threshold
